# In US12098159B2, “Solid forms of substituted benzoxaborole and compositions thereof” (5Metis, Inc., priority 2018, dated 2024):
# Assays:
# Format in all cases: physicochemical
# [1] = VT-XRPD and heating experiments: dehydration of (I) to (II) and conversion back
# Method: The compound of formula (II) can be prepared by heating the compound of formula (I) under vacuum or by exposing the compound of formula (I) to dehydrating conditions.
# To confirm this hypothesis, variable-temperature XRPD (VT-XRPD) and heating experiments were performed. […] The ^1H NMR results in FIG. 22B show no difference before and after heating, likely because the dehydrated product converted back to (I) after being exposed to residual water in DMSO-d6. TGA was also performed by heating (I) to 160° C. and cooling to room temperature, followed by re-heating to 160° C. after placed being placed under ambient conditions overnight. […] All the results were consistent with the hypothesis that dehydration and hydration reactions would occur during heating and exposure to air, respectively.
# [2] = TGA weight loss (ramp, cycle and isothermal TGA)
# Method: TGA data were collected using a TA Q5000/5500 TGA from TA Instruments. DSC was performed using a TA Q2000/2500 DSC from TA Instruments.
# (§1) This difference was postulated to be caused by preferred orientation, since the morphology of Type A starting material was rod-like. A two-stage weight loss of 0.5% up to 100° C. and 10.0% from 100° C. to 160° C. was observed on the TGA curve. […] (onset temperature). The DVS isotherm plot of Type A was collected at 25° C. between 0 and 95% RH.
# The results of VT-XRPD and heating experiment preliminarily confirmed the dehydration reaction. However, the theoretical weight loss of dehydration was calculated to be 5.4%, which was not consistent with the observed TGA weight loss of 10.0%. To further explain the difference on weight loss, the TGA data of Type A were re-visited. The results in FIG. 23B indicate that there might be 2 events involved in the TGA weight loss from 100° C. to 160° C., one of which is the dehydration of (I) (the theoretical weight loss of dehydration was close to the TGA weight loss up to 128° C.), while the other may be the complete decomposition or sublimation of the dehydrated product (if it's partial decomposition, the sample after heated should not convert back to (I) upon exposure to air).
# Cycle TGA was conducted by heating Type A to 160° C. and cooling to 50° C. (with N2 purge, without exposure to air), followed by re-heating to 160° C. […] Isothermal TGA was conducted by heating Type A to 160° C. and isothermal at 160° C. for 0.5 hr. A weight loss of >20% was observed during the isothermal stage FIG. 24B, which was postulated to be decomposition/sublimation.
# [3] = Dynamic vapor sorption (DVS) of Type A
# Source text: After preparation by the method described in Example 1, the starting material was characterized by X-ray powder diffraction (XRPD), thermo gravimetric analysis (TGA), differential scanning calorimetry (DSC), dynamic vapor sorption (DVS), high performance liquid chromatography (HPLC), and ^1H solution nuclear magnetic resonance (^1H NMR).
# as §1
SMILES,"XRPD pattern of dehydrated product after exposure to air ([1]; after heating to 140° C. with N2 purge, exposed in air for 3 hrs)",behaviour on exposure to water ([1]; exposed to water),TGA weight loss ([2]; from 100° C. to 160° C.),"cycle TGA weight loss on the re-heating curve ([2]; heated to 160° C., cooled to 50° C. with N2 purge, re-heated, up to 150° C.)",isothermal TGA weight loss ([2]; isothermal at 160° C. for 0.5 hr),"Wt Loss on TGA (%, up to 100° C.) ([2]; up to 100° C.)",water up-take (DVS) ([3]; 25° C./80% RH),form change after the DVS test (XRPD) ([3]; DVS at 25° C. between 0 and 95% RH),"XRPD after heating experiment ([1]; heated to 160° C. and cooled to RT, exposed to air)"
"Clc1ccc2c(c1)COB2OB1OCc2cc(Cl)ccc21 [(II), 1,1′-oxybis(5-chloro-1,3-dihydrobenzo[c][1,2]oxaborole)]",converted back to Type A,reverts to the compound of formula (I),–,–,–,–,–,–,–
"OB1OCc2cc(Cl)ccc21 [(I), 5-chlorobenzo[c][1,2]oxaborol-1(3H)-ol]",–,–,10.0%,1.3%,> 20%,0.5%,0.1%,no form change was observed,partial conversion to the dehydrated product (II)
